# Experimental data taken from ChEMBL document CHEMBL6120934, “Isolation and Characterization of Insecticidal Cyclotides from Viola communis” (J Nat Prod, 2025).
# Bridge positions count the residues as written; N and C are the ends. Peptide text beside a SMILES is read from it.
# Experiment: Cytotoxicity against Spodoptera frugiperda Sf9 cells assessed as inhibition of cell viability incubated for 24 hrs by resazurin assay
# Format: toxicity, cell-based
row,Structure (SMILES),CC50 at 24 h [µM]
1,CC(C)C[C@@H]1NC(=O)CNC(=O)[C@H](CC(N)=O)NC(=O)[C@H](CCCNC(=N)N)NC(=O)[C@H]([C@@H](C)O)NC(=O)[C@@H]2CSSC[C@@H]3NC(=O)[C@H]([C@@H](C)O)NC(=O)CNC(=O)CNC(=O)[C@H](C(C)C)NC(=O)[C@@H]4CSSC[C@H](NC(=O)[C@H]([C@@H](C)O)NC(=O)[C@H](CSSC[C@H](NC(=O)[C@H](C(C)C)NC(=O)[C@@H]5CCCN5C1=O)C(=O)NCC(=O)N[C@@H](CCC(=O)O)C(=O)N[C@@H]([C@@H](C)O)C(=O)N4)NC(=O)CNC(=O)[C@@H]1CCCN1C(=O)[C@H]([C@@H](C)O)NC(=O)[C@H](CC(N)=O)NC3=O)C(=O)N[C@@H](CO)C(=O)N[C@@H](Cc1c[nH]c3ccccc13)C(=O)N1CCC[C@H]1C(=O)N[C@@H](C(C)C)C(=O)N2,2.31
2,"CC[C@H](C)[C@@H]1NC(=O)[C@H](C(C)C)NC(=O)[C@H](CO)NC(=O)[C@H](CO)NC(=O)[C@H](Cc2ccccc2)NC(=O)[C@@H]2CSSC[C@@H](C(=O)N[C@@H](Cc3ccc(O)cc3)C(=O)N[C@@H](CC(N)=O)C(=O)O)NC(=O)[C@H](C(C)C)NC(=O)[C@H](CCCCN)NC(=O)[C@H](CC(N)=O)NC(=O)[C@H](CCCCN)NC(=O)[C@@H]3CSSC[C@H](NC(=O)[C@H](CO)NC(=O)[C@H](CCC(=O)O)NC(=O)CNC(=O)[C@@H](NC(=O)[C@@H]4CCCN4C(=O)[C@@H](NC(=O)[C@H](C)NC(=O)[C@H](C)N)C(C)C)CSSC[C@H](NC(=O)CNC1=O)C(=O)N[C@@H](CO)C(=O)N3)C(=O)N[C@@H](C(C)C)C(=O)N[C@@H](Cc1c[nH]c3ccccc13)C(=O)N[C@@H]([C@@H](C)CC)C(=O)N1CCC[C@H]1C(=O)N2 (H-AAVPCGESCVWIPCFSSVIGCSCKNKVCYN-OH; disulfide 5-21, 9-23, 14-28)",0.16
3,"CC(C)[C@H](NC(=O)[C@@H]1CCCN1C(=O)[C@H](C)NC(=O)CN)C(=O)N[C@H]1CSSC[C@@H]2NC(=O)CNC(=O)[C@@H]3CCCN3C(=O)[C@H]([C@@H](C)O)NC(=O)[C@H](CC(N)=O)NC(=O)[C@@H]3CSSC[C@@H](C(=O)N[C@@H](CO)C(=O)N[C@@H](CCCCN)C(=O)N[C@@H](CC(N)=O)C(=O)O)NC(=O)[C@H](C(C)C)NC(=O)[C@@H]4CCCN4C(=O)[C@H](Cc4c[nH]c5ccccc45)NC(=O)[C@@H]4CCCN4C(=O)[C@H](CC(=O)O)NC(=O)[C@H](CSSC[C@H](NC(=O)[C@H]([C@@H](C)O)NC(=O)[C@H](CCC(=O)O)NC(=O)CNC1=O)C(=O)N[C@@H](Cc1ccccc1)C(=O)NCC(=O)NCC(=O)N[C@@H]([C@@H](C)O)C(=O)N3)NC(=O)[C@H]([C@@H](C)O)NC2=O (H-GAPVCGETCFGGTCNTPGCTCDPWPVCSKN-OH; disulfide 5-19, 9-21, 14-27)",7.61
4,"CC[C@H](C)[C@@H]1NC(=O)[C@@H]2CSSC[C@@H](C(=O)N[C@@H](Cc3ccc(O)cc3)C(=O)N[C@@H](CCCCN)C(=O)N[C@@H](CC(N)=O)C(=O)O)NC(=O)[C@H](C(C)C)NC(=O)[C@H](CCCCN)NC(=O)[C@H](CO)NC(=O)[C@H](CCCCN)NC(=O)[C@@H]3CSSC[C@H](NC(=O)[C@H](CO)NC(=O)[C@H](CCC(=O)O)NC(=O)CNC(=O)[C@@H](NC(=O)[C@@H]4CCCN4C(=O)[C@H](CC(C)C)NC(=O)[C@@H](NC(=O)CN)[C@@H](C)O)CSSC[C@H](NC(=O)CNC(=O)[C@H](C(C)C)NC(=O)[C@H](C(C)C)NC(=O)[C@H](CO)NC(=O)[C@H](CO)NC1=O)C(=O)N[C@@H](CO)C(=O)N3)C(=O)N[C@@H](C(C)C)C(=O)N[C@@H](Cc1c[nH]c3ccccc13)C(=O)N[C@@H]([C@@H](C)CC)C(=O)N1CCC[C@H]1C(=O)N2 (H-GTLPCGESCVWIPCISSVVGCSCKSKVCYKN-OH; disulfide 5-21, 9-23, 14-28)",0.11
